The values that follow come from US11918615B2, “Anti-inflammatory botanical extract” (Innophos, LLC, priority 2018, dated 2024).

The subject of the test is potato 5-Lipoxygenase enzyme. The test can be described thus: Lipoxygenase Inhibitor Screening Assay Kit (Cayman), hydroperoxide formation, absorbance 492 nm. Format: biochemical. The conditions noted are these: positive control at 100 μM. Here is the method: Extracts of cranberry fruit (E1) and cranberry leaf (E2) were prepared with food-grade ethanol, and then filtered and dried as described above. Research grade reagents were used for the rest of the assay preparations. Extracts were dissolved in dimethyl sulfoxide (‘DMSO’) to a final concentration of 50 mg/mL, and then diluted in appropriate buffer for each bioassay to working concentrations.
Cranberry fruit extract (E1) and cranberry leaf extract (E2) were tested for 5-LOX inhibition using the Lipoxygenase Inhibitor Screening Assay Kit (available from Cayman Chemical, Ann Arbor, Michigan, US) and potato 5-Lipoxygenase enzyme (available from Cayman Chemical). This kit measures hydroperoxides produced in the lipoxygenation reaction.
The extracts were dissolved in methanol to final working concentrations. 5-LOX enzyme, Chromagen, and Linoleic Acid solutions were prepared immediately before use. Nordihydroguaiaretic acid (‘NDGA’) was used as a positive control. 5-LOX enzyme was added to the test samples and controls and incubated for five minutes at room temperature to allow for enzyme/inhibitor interaction. Linoleic acid substrate was added to the plate to initiate the reaction, and the plate was then shaken at room temperature for 10 minutes. […] The absorbance was then read at 492 nm. Percent inhibition of the extract concentration was calculated in comparison to the uninhibited control wells. […]

Molecule `CC(Cc1ccc(O)c(O)c1)C(C)Cc1ccc(O)c(O)c1` (stereo not shown) [NDGA, Nordihydroguaiaretic acid] came in with a 5-LOX enzyme inhibition of 100%.
